Test results published in patent US9878986B2, “Compounds for selective histone deacetylase inhibitors, and pharmaceutical composition comprising the same” (CHONG KUN DANG PHARMACEUTICAL CORP., priority 2013, dated 2018).
pIC50: −log10 of the molar value.

Columns and labels:
[1] = target: T1, HDAC 2 (Homo sapiens, UniProt Q92769); assay: HDAC panel by Reaction Biology Corp., HDAC 2; assay type: biochemical; details: read-out: HDAC inhibitory activities, HDAC 2
T1 construct: Reaction Biology Corp
Text: (§1) The inhibitory activities of Compounds 255 and 374 on all HDACs were confirmed (by Reaction Biology Corp.).

[2] = target: T2, HDAC 8 (Homo sapiens, UniProt Q9BY41); assay: HDAC panel by Reaction Biology Corp., HDAC 8; assay type: biochemical; details: read-out: HDAC inhibitory activities, HDAC 8
T2 construct: Reaction Biology Corp
T2 sequence (Q9BY41 1-377): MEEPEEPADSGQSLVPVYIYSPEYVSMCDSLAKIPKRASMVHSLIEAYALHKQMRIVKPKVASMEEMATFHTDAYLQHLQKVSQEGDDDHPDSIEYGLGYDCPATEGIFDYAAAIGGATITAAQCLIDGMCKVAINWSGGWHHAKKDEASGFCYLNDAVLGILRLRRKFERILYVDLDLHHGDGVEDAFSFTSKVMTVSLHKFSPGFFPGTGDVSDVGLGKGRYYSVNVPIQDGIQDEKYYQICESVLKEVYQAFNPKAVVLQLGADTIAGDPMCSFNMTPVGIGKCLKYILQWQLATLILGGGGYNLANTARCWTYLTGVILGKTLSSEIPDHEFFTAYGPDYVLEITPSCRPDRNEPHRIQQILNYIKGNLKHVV
Text: as §1

[3] = target: T3, HDAC 11 (Homo sapiens, UniProt Q96DB2); assay: HDAC panel by Reaction Biology Corp., HDAC 11; assay type: biochemical; details: read-out: HDAC inhibitory activities, HDAC 11
T3 construct: Reaction Biology Corp
T3 sequence (Q96DB2 1-347): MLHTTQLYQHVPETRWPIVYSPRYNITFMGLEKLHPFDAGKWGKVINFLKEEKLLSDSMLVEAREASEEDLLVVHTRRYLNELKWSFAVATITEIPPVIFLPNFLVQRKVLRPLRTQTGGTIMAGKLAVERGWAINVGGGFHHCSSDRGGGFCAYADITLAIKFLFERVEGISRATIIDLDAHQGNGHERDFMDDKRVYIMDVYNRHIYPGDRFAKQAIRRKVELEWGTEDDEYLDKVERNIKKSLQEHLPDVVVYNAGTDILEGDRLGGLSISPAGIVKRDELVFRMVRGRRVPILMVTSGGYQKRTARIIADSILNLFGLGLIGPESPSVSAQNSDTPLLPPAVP
Text: as §1

[4] = tested on: histone acetylation (HDAC1) in RPMI8226 cells; assay: Acetylation of Histone H3 and Histone H4 in cells by Western blot; assay type: cell-based; details: 24 hours
Protocol: To determine the selectivity for HDAC6 in cells, the acetylation levels of Tubulin, Histone H3 and Histone H4 depending on the concentration of compounds were measured by Western blot.
RPMI8226 (1.0×10^6 cells/well) cells were seeded on six-well plates and treated with drugs (Compounds 255 and 374) at each concentration. After 24 hours, the proteins were extracted with RIPA buffer and quantified by the Bradford method. 25 μg of protein was lysed in sample buffer, electrophoresed on a 4-12% gradient gel, and then transferred to nitrocellulose membranes for 50 minutes. Then transferred protein was blocked with 5% skim milk for 1 hour. Anti-acetyl H3 (1:2,000), anti-acetyl H4 (1:5,000), anti-acetyl tubulin (1:5,000), and anti-β-actin antibody (1:10,000) were added into 5% skim milk, and the membranes were immersed in the skim milk, reacted at 4° C. for 16 hours, and then washed three times for 10 minutes each with 1×TBS-T. Then, IgG-HRP antibody (1:5,000) was added into 5% skim milk, and then the membranes were immersed in the skim milk, reacted at room temperature for 40 minutes, and then washed three times for […] each with 1×TBS-T. Then, the acetylation levels were determined with a LAS 3000 using ECL solution. […]

[5] = tested on: adjuvant-induced arthritis models; assay: Adjuvant-induced arthritis models; assay type: in vivo, Lewis rat; details: for clinical score: intraperitoneally, score 0 to 16; for arthritis symptoms improved by: 3, 10 and 30 mg/kg twice a day, versus vehicle group; for efficacy compared with the control compound Tofacitinib: clinical score
Protocol: Complete Freund's Adjuvant (Chondrex) containing 10 mg/mL Heat killed mycobacteria toxin was sufficiently mixed, and then 100 μL was taken and intradermally injected into the upper part of the tail of Lewis rat to induce arthritis. After 10 days, the length of the ankle circumference of rats was measured, and then the rats were grouped and used in the experiment. Each compound was intraperitoneally injected twice a day. The clinical score, the length of the ankle circumference, and the weight were measured twice a week after the administration of the compounds. The clinical scores were assigned from 0 to 4 based on the thesis of Woods, etc. (J. Immunology, 1214-1222, 2001), and the total clinical score was determined by evaluating the feet of each rat and summing up the scores (normal: 0, most severe edema: 16). The length of the ankle circumference was calculated based on the formula of 2×3.14(√(a^2+b^2/2)) after measuring top-bottom sides (a) of the foot and lateral sides (b) of the foot. The final value was determined by averaging the calculated values of each foot.

T1 sequence (Q92769 whole entry): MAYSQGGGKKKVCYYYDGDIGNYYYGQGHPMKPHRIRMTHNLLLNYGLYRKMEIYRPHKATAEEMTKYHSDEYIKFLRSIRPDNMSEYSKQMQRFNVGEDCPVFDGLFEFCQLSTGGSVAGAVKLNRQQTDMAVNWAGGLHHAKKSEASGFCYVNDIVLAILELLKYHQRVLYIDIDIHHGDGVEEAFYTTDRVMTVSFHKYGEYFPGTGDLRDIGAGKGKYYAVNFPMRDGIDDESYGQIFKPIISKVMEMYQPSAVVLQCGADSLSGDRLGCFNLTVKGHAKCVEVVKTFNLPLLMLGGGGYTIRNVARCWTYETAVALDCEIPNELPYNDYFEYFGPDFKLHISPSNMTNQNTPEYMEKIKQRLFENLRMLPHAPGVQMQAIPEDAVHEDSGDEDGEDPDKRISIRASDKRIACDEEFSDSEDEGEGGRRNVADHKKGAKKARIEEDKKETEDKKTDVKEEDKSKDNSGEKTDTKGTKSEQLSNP

## O=C(NO)c1ccc(CN(C(=O)N2CCOCC2)c2cccc(Br)c2)cc1 [Compound 255, N-(3-bromophenyl)-N-(4-(hydroxycarbamoyl)benzyl)morpholine-4-carboxamide]
[1]
  pIC50: 6.16
[2]
  pIC50: 6.19
[3]
  pIC50: 6.11
[4]
  concentration at which histone acetylation (HDAC1) was expressed: 1 µM
[5]; 3 mg/kg twice a day
  clinical score: 3.0
[5]; 10 mg/kg twice a day
  clinical score: 2.6
[5]; 30 mg/kg twice a day
  clinical score: 0.7
[5]
  arthritis symptoms improved by: 40 to 90%
  efficacy compared with the control compound Tofacitinib: equivalent efficacy

## O=C(NO)c1ccc(CN(C(=O)N2CCOCC2)c2cccc(C(F)(F)F)c2)cc1 [Compound 374, N-(4-(hydroxycarbamoyl)benzyl)-N-(3-(trifluoromethyl)phenyl)morpholine-4-carboxamide]
[1]
  pIC50: 5.31
[2]
  pIC50: 5.68
[3]
  pIC50: 5.07
[4]
  concentration at which histone acetylation (HDAC1) was expressed: 10 µM
[5]; 3 mg/kg twice a day
  clinical score: 2.5
[5]; 10 mg/kg twice a day
  clinical score: 0.8
[5]; 30 mg/kg twice a day
  clinical score: 1.3
[5]
  arthritis symptoms improved by: 70 to 90%
  efficacy compared with the control compound Tofacitinib: equivalent efficacy
